In brackets after ≈: the same amount, converted by molar mass. A value given as a limit tells only on which side of the number the result lay.

In the first test the test system is Aspergillus fumigatus. The test is described as follows: MIC measurement, YAG medium. The test is classed as cell-based. The note with it: Aspergillus fumigatus, read-out: MIC A. fumigatus. On the procedure: Between 1 and 5 mgs of compound were accurately weighed out into a sterile Eppendorf tube. The compound was dissolved in DMSO to give a solution containing […]. Tubes were stored at −20° C. until required.
On the day of testing thawed solutions were vortex mixed to ensure homogeneity. 30 μL of solution was removed and added to 570 μL of sterile water in a separate sterile Eppendorf. The thoroughly mixed solution was used to prepare a series of doubling dilutions in water, in a deep well plate. Thirteen replicate plates were prepared using a Minitrak by aspirating 20 μL from each well into eleven clear polystyrene 96 well plates.
Spores of Aspergillus spp. (Aspergillus fumigatus [two strains], Aspergillus terreus [two strains], Aspergillus niger and Aspergillus flavus) were harvested from cultures grown on Sabarauds agar for 5 days, and resuspended in PBS/Tween 80 to approx 1×10^7 cfu/mL. Other filamentous fungi (Absidia corymbifera, Fusarium solani, Rhizomucor, Scedosporium spp., Trichophyton spp.), were grown on Sabarauds agar for 2-10 days and spores/hyphae resuspended in PBS/Tween to give approx 1×10^7 cfu/mL. Candida species (Candida albicans, Candida glabrata, Candida krusei, Candida parapsilosis and Candida tropicalis) were grown on Sabarauds agar, cells were harvested from the agar using a sterile loop and resuspended in PBS/Tween 80 to approx 1×10^6 cfu/mL. Each organism suspension was diluted in RPMI medium, containing 2% glucose and 0.135 M MOPS buffer (pH 7.0) to 0.5-2×10^4 cfu/mL for Aspergillus spp. and other filamentous fungi and 0.5-2×10^3 cfu/mL for yeast. 80 μL of an organism suspension was added to each well of the plate containing drug dilutions.
This produced MIC plates with a drug range 50-0.05 mg/L and organism inocula of 1-2×10^4 cfu/mL for Aspergillus spp. and other filamentous fungi and 1-2×10^3 cfu/mL for yeasts. All plates were incubated for 24-48 hrs at 35° C. Growth was assessed by monitoring the optical density at 485 nm for each well. The MIC of a compound is the lowest drug concentration that inhibits growth of an organism by >80% compared with a drug free control. MICs are recorded as mg/L. Other growth media can be used for susceptibility testing, and the activity of the described compounds can also be assessed in a medium comprising 1% glucose, 1% ammonium chloride and 0.5% yeast extract (YAG medium). To perform MIC tests in this medium, dilutions of compounds are prepared in microtitre plates as described above. Fungal strains to be tested are grown and harvested in an identical manner to that described above, each organism suspension is then diluted in YAG medium to 0.5-2×10^4 cfu/mL for Aspergillus spp. and other filamentous fungi and 0.5-2×10^3 cfu/mL for yeast. 80 μL of an organism suspension was added to each well of the plate containing drug dilutions. This produced MIC plates with a drug range 50-0.05 mg/L and organism inocula of 1-2×10^4 cfu/mL for Aspergillus spp. and other filamentous fungi and 1-2×10^3 cfu/mL for yeasts. All plates were incubated for 24 hrs at 35° C. Growth was assessed by monitoring the optical density at 485 nm for each well. The MIC of a compound is the lowest drug concentration that inhibits growth of an organism by >70% compared with a drug free control. MICs are recorded as mg/L. In cases where the MIC of an organism is […] mg/L the MIC is repeated using a concentration range of 0.5-0.0005 mg/L. MIC tests in YAG medium have more clear-cut endpoints and have slightly lower MICs than those performed in RPMI medium.
The following organisms were tested: Absidia corymbifera, Aspergillus flavus, Aspergillus fumigatus AF293 and AF210, Aspergillus niger, Aspergillus terreus AT4 and AT49, Candida albicans, Candida glabrata, Candida krusei, Candida parapsilosis, Candida tropicalis, Fusarium solani, Rhizomucor sp., Scedosporium apiospermum, Scedosporium prolificans, Trichophyton mentagrophytes, and Trichophyton rubrum.
Usually MIC stands for the lowest concentration that inhibits growth of the organism. Take `CCN(CC)C(=O)Oc1cc(-c2ccc(NC(=O)C(=O)c3c(-c4ccccc4)cc4ccccn34)cc2)on1` [Example 27, Diethyl-carbamic acid-5-{4-[2-oxo-2-(2-phenyl-indolizin-3-yl)-aeetylamino]-phenyl}-isoxazol-3-yl ester]: the MIC is below 1 µg/mL.

Staying with this test, now noted: Aspergillus fumigatus; YAG medium; MIC banded into grades; strain AF293; read-out: MIC A. fumigatus.
Turning to `Cc1cc(NC(=O)C(=O)c2c(-c3ccccc3)cc3ccccn23)ccc1OCCCn1ccnc1C(C)C` [Example 12, N-{4-[3-(2-Isopropyl-imidazol-1-yl)-propoxy]-3-methyl-phenyl}-2-oxo-2-(2-phenyl-indolizin-3-yl)-acetamide], the MIC lay within 1 to 10 µg/mL (≈ 1.92 to 19.2 µM).
As for `Cc1cc(C)nc(N(C)CCOc2ccc(NC(=O)C(=O)c3c(-c4ccccc4)cc4ccccn34)cc2)c1` [Example 64, N-(4-{2-[(4,6-Dimethyl-pyridin-2-yl)-methyl-amino]-ethoxy}-phenyl)-2-oxo-2-(2-phenyl-indolizin-3-yl)-acetamide], the MIC was below 1 µg/mL.
Same read-out and setting: under `Cc1cc(C)nc(N2CCN(c3ccc(NC(=O)C(=O)c4c(-c5ccccc5)cc5ccccn45)c(C)c3)CC2)c1` [Example 80, N-{4-[4-(4,6-Dimethyl-pyridin-2-yl)-piperazin-1-yl]-2-methyl-phenyl}-2-oxo-2-(2-phenyl-indolizin-3-yl)-acetamide] stands below 1 µg/mL; under `Cc1cc(C)nc(N(C)CCNc2ccc(NC(=O)C(=O)c3c(-c4ccccc4)cc4ccccn34)cc2)c1` [Example 78, N-(4-{2-[(4,6-Dimethyl-pyridin-2-yl)-methyl-amino]-ethylamino}-phenyl)-2-oxo-2-(2-phenyl-indolizin-3-yl)-acetamide], below 1 µg/mL; under `CC(C)c1nc(C(C)(C)c2cccc(NC(=O)C(=O)c3c(-c4ccccc4)cc4ccccn34)c2)cn1C` [Example 14, N-{3-[1-(2-Isopropyl-1-methyl-1H-imidazol-4-yl)-1-methyl-ethyl]-phenyl}-2-oxo-2-(2-phenyl-indolizin-3-yl)-acetamide], above 10 µg/mL.
Still for that read-out and setting: next, `Cc1cc(C)nc(N2CCN(c3ccc(NC(=O)C(=O)c4c(-c5ccccc5)cc5ccccn45)cc3)CC2)c1` [Example 21, N-{4-[4-(4,6-Dimethyl-pyridin-2-yl)-piperazin-1-yl]-phenyl}-2-oxo-2-(2-phenyl-indolizin-3-yl)-acetamide]: below 1 µg/mL; `Cc1cc(C)nc(N2CCN(c3ccc(NC(=O)C(=O)c4c(C(C)(C)C)cc5ccccn45)cc3)CC2)c1` [Example 62, 2-(2-tert-Butyl-indolizin-3-yl)-N-{4-[4-(4,6-dimethyl-pyridin-2-yl)-piperazin-1-yl]-phenyl}-2-oxo-acetamide]: above 10 µg/mL; `Cc1cc(C)nc(N2CCN(c3ccc(NC(=O)C(=O)c4c(C5CCCC5)cc5ccccn45)cc3)CC2)c1` [Example 47, 2-(2-Cyclopentyl-indolizin-3-yl)-N-{4-[4-(4,6-dimethyl-pyridin-2-yl)-piperazin-1-yl]-phenyl}-2-oxo-acetamide]: below 1 µg/mL.
For the molecule `O=C(Nc1ccc(N2CCN(c3cccnc3)CC2)cc1)C(=O)c1c(-c2ccccc2)cc2ccccn12` [Example 59, 2-Oxo-2-(2-phenyl-indolizin-3-yl)-N-[4-(4-pyridin-3-yl-piperazin-1-yl)-phenyl]-acetamide], the MIC was below 1 µg/mL.
The same measure, in the same setting: under `COCCN(C)c1ccc(N2CCN(c3ccc(NC(=O)C(=O)c4c(-c5ccccc5)cc5ccccn45)cc3)CC2)cn1` [Example 68, N-[4-(4-{6-[(2-Methoxy-ethyl)-methyl-amino]-pyridin-3-yl}-piperazin-1-yl)-phenyl]-2-oxo-2-(2-phenyl-indolizin-3-yl)-acetamide] stands below 1 µg/mL.
The same measure, in the same setting: next, `O=C(Nc1ccc(NCCOc2ccccn2)cc1)C(=O)c1c(-c2ccccc2)cc2ccccn12` [Example 90, 2-Oxo-2-(2-phenyl-indolizin-3-yl)-N-{4-[2-(pyridin-2-yloxy)-ethylamino]-phenyl}-acetamide]: below 1 µg/mL; `O=C(Nc1ccc(N2CCC3(CC2)OCCO3)cc1)C(=O)c1c(-c2ccccc2)cc2ccccn12` [Example 23, N-[4-(1,4-dioxa-8-aza-spiro[4.5]dec-8-yl)-phenyl}-2-oxo-2-(2-phenyl-indolizine-3-yl)-acetamide]: below 1 µg/mL.
For the molecule `Cc1cc(C)nc(N2CCN(c3ccc(NC(=O)C(=O)c4c(C5CCOCC5)cc5ccccn45)cc3)CC2)c1` [Example 66, N-{4-[4-(4,6-Dimethyl-pyridin-2-yl)-piperazin-1-yl]-phenyl}-2-oxo-2-[2-(tetrahydro-pyran-4-yl)-indolizin-3-yl]-acetamide], the MIC is below 1 µg/mL.
Regarding `O=C(Nc1ccc(N2CCN(CCc3ccco3)CC2)cc1)C(=O)c1c(-c2ccccc2)cc2ccccn12` [Example 39, N-{4-[4-(2-Furan-2-yl-ethyl)-piperazin-1-yl]-phenyl}-2-oxo-2-(2-phenyl-indolizin-3-yl)-acetamide], the MIC is below 1 µg/mL.
Still for that read-out and setting: under `CC(C)(C)CN1CCN(c2ccc(NC(=O)C(=O)c3c(-c4ccccc4)cc4ccccn34)nc2)CC1` [Example 50, N-{5-[4-(2,2-Dimethyl-propyl)-piperazin-1-yl]-pyridin-2-yl}-2-oxo-2-(2-phenyl-indolizin-3-yl)-acetamide] stands below 1 µg/mL; under `Cc1ccnc(N2CCN(c3ccc(NC(=O)C(=O)c4c(-c5ccccc5)cc5ccccn45)cc3)CC2)c1` [Example 49, N-{4-[4-(4-Methyl-pyridin-2-yl)-piperazin-1-yl]-phenyl}-2-oxo-2-(2-phenyl-indolizin-3-yl)-acetamide], below 1 µg/mL.
The same measure, in the same setting: under `CC(C)c1ncc(C(C)(C)c2cccc(NC(=O)C(=O)c3c(-c4ccccc4)cc4ccccn34)c2)n1C` [Example 15, N-{3-[1-(2-Isopropyl-3-methyl-3H-imidazol-4-yl)-1-methyl-ethyl]-phenyl}-2-oxo-2-(2-phenyl-indolizin-3-yl)-acetamide] stands above 10 µg/mL.
On the same count and under the same terms, next, `COc1ccc(NC(=O)C(=O)c2c(C)c(-c3ccccc3)c3ccccn23)cc1` [Example 6, N-(4-methoxy-phenyl)-2-(2-methyl-1-phenyl-indolizin-3-yl)-2-oxo-acetamide]: above 10 µg/mL; `Cc1cc(C)nc(N2CCN(c3ccc(NC(=O)C(=O)c4c(C5CC5)cc5ccccn45)cc3)CC2)c1` [Example 58, 2-(2-Cyclopropyl-indolizin-3-yl)-N-{4-[4-(4,6-dimethyl-pyridin-2-yl)-piperazin-1-yl]-phenyl}-2-oxo-acetamide]: below 1 µg/mL; `CN1CCN(c2ccc(NC(=O)C(=O)c3c(-c4ccccc4)cc4ccccn34)cc2-c2ncco2)CC1` [Example 19, N-[4-(4-methyl-piperazin-1-yl)-3-oxazol-2-yl-phenyl]-2-oxo-2-(2-phenyl-indolizin-3-yl)-acetamide]: above 10 µg/mL.
For the molecule `Cc1cc(C)nc(N2CCN(c3ccc(NC(=O)C(=O)c4c(C(C)C)cc5ccccn45)cc3)CC2)c1` [Example 61, N-{4-[4-(4,6-Dimethyl-pyridin-2-yl)-piperazin-1-yl]-phenyl}-2-(2-isopropyl-indolizin-3-yl)-2-oxo-acetamide], the MIC is below 1 µg/mL.
On the same count and under the same terms, under `O=C(Nc1ccc(C(=O)OC2CCOCC2)c(O)c1)C(=O)c1c(-c2ccccc2)cc2ccccn12` [Example 11, 2-hydroxy-4-[2-oxo-2-(2-phenyl-indolizin-3-yl)-acetylamino]-benzoic acid tetrahydro-pyran-4-yl ester] stands below 1 µg/mL; under `COCCOCCOc1cc(C)nc(N2CCN(c3ccc(NC(=O)C(=O)c4c(-c5ccccc5)cc5ccccn45)cc3)CC2)c1` [Example 76, N-[4-(4-{4-[2-(2-methoxy-ethoxy)-ethoxyl]-6-methyl-pyridin-2-yl}-piperazin-1-yl)-phenyl]-2-oxo-2-(2-phenyl-indolizin-3-yl)-acetamide], below 1 µg/mL.

Values taken from US8604029B2, “2-[(2-substituted)-indolizin-3-yl]-2-oxo-acetamide derivatives as antifungal agents” (F2G Ltd British Body Corporate, priority 2006, dated 2013).
